Measurements reported in patent US20130029983A1, “AMINOTHIENOPYRIDAZINE INHIBITORS OF TAU ASSEMBLY” (priority 2009, published 2013).

Columns and labels:
K18PL tau [1] = molecular target: T1, K18PL tau (Homo sapiens, UniProt P10636, P618L); assay: K18PL tau centrifugation (sedimentation) assay, SDS-PAGE densitometry; format: biochemical; conditions: Table 4; K18PL tau centrifugation assay
T1 construct: (K18PL; amino acids 244-369); made in house
Protocol: The determination of compound-induced effects on the amount of tau that remains soluble upon centrifugation, and EM visualization of tau species following incubation with test compounds, were as previously described (Crowe, A., Ballatore, C., Hyde, E., Trojanowski, J. Q., and Lee, V. M. Y. (2007) Biochemical and Biophysical Research Communications 358, 1-6).
(§1) The solubility of test compounds in the sodium acetate buffer used for subsequent fibrillization reactions was determined by turbidimetric measurements. Compounds were then evaluated in a heparin-induced tau assembly assay, in which the fibrillization of the truncated K18 tau fragment (comprised of four MT-binding repeats) bearing the P301L mutation (K18PL) found in FTDP-17, was monitored by thioflavine-T (ThT) binding and fluorescence (FIG. 3A). (Crowe, A.; et al., Identification of aminothienopyridazine inhibitors of tau assembly by quantitative high-throughput screening. Biochemistry 2009, 48, 7732-45.) The inhibitory activity of test compounds was then confirmed with an orthogonal sedimentation assay in which compound-treated fibrillizing mixtures were centrifuged and quantitation of K18PL tau in the soluble and insoluble fraction was performed by densitometric analyses of SDS-PAGE (FIG. 3B). […] Thus, the tau fibrillization assay was repeated in which both DMSO- and compound-treated mixtures were initially centrifuged for 30 min. prior to incubation (i.e., at time zero of the fibrillization reaction) to remove any pelletable material.

K18PL tau [2] = molecular target: T1, K18PL tau; assay: Heparin-induced K18PL tau fibrillization assay monitored by ThT fluorescence; format: biochemical; conditions: Table 4; for Tau ThT Assay % Inhib. / inhibition at 80 µM: highest tested concentration (80 μM); for inhibition at 80 µM: read-out: Tau ThT Assay % Inhib.; for IC50 / Tau ThT Assay Log IC50: logarithm of IC50, K18PL tau ThT fluorescence inhibition; for IC50: read-out: Tau ThT Assay Log IC50 (converted)
Protocol: Tau fibril formation reactions were performed essentially as described (Crowe, A., Ballatore, C., Hyde, E., Trojanowski, J. Q., and Lee, V. M. Y. (2007) Biochemical and Biophysical Research Communications 358, 1-6). K18PL (2 μl of a 30 μM stock that also contained 0.24 μM Alexa Red-labeled K18PL) was dispensed into black 1536-well plates (Grenier) using a solenoid-based dispenser. Following transfer of 23 nL of test compound or DMSO vehicle by a pin tool from compound library plates, 2 μl/well of 40 μM heparin in reagent buffer was dispensed and the plate was centrifuged for 15 s at 1000 rpm in a table-top centrifuge. The fibrillization reaction proceeded for 6 hours at 37° C. in a humidified incubator (Kalypsys).
K18PL fibril formation was quantified with a ThT assay as previously described (Crowe, A., Ballatore, C., Hyde, E., Trojanowski, J. Q., and Lee, V. M. Y. (2007) Biochemical and Biophysical Research Communications 358, 1-6). Briefly, 1 μl/well of 62.5 μM ThT (Sigma) in 100 mM glycine, pH 8.5 (12.5 μM final concentration) was dispensed into 1536-well plates after completion of the fibrillization reaction and incubated at room temperature for 1 hour. Plates were read on an Envision fluorescence plate reader with an excitation of 450 nm and an emission setting of 510 nm.
Compound effects on tau assembly were determined for the ThT and FP assays using the formula 1−(Fcompound− FDMSO)/( Fcontrol− FDMSO), where Fcontrol denotes the median plate fluorescence values (ThT assay) or mP values (FP assay) of the non-fibrillizing K18 KD control wells, FDMSO denotes the median value of the DMSO control wells, and Fcompound denotes the compound well values. The resulting values were multiplied by 100 to obtain the percent inhibition of tau fibril formation.
as §1

T1 sequence (P10636 561-686 P618L): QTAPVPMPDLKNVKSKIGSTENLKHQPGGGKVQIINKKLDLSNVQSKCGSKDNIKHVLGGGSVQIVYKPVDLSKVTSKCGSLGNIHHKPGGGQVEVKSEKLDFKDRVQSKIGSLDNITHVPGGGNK

| Tau Cent. Assay % Soluble (K18PL tau [1]) [%] | Tau ThT Assay % Inhib. (K18PL tau [2]) [%] | inhibition at 80 µM (K18PL tau [2]) [%] | IC50 (K18PL tau [2]) [µM] | Tau ThT Assay Log IC50 (K18PL tau [2]) | Compound |
| --- | --- | --- | --- | --- | --- |
| 17 | 8 | – | – | – | CCOC(=O)c1nn(-c2ccc(C(C)C)cc2)c(=O)c2c(N)scc12 [CNDR-51347] |
| 59 | – | 69 | 50.1 | – | CCOC(=O)c1nn(-c2ccc([N+](=O)[O-])cc2)c(=O)c2c(N)scc12 [CNDR-51352, Ethyl 5-amino-3-(4-nitrophenyl)-4-oxo-3,4-dihydrothieno[3,4-d]pyridazine-1-carboxylate] |
| 67 | – | 74 | 1.26 | – | CCOC(=O)c1nn(-c2ccc(N)cc2)c(=O)c2c(N)scc12 [CNDR-51355, Ethyl 5-amino-3-(4-aminophenyl)-4-oxo-3,4-dihydrothieno[3,4-d]pyridazine-1-carboxylate] |
| 51 | – | 39 | 5.01 | – | CCOC(=O)c1nn(-c2ccc(Cl)cc2)c(=O)c2c(NC)scc12 [CNDR-51360, Ethyl 3-(4-chlorophenyl)-5-(methylamino)-4-oxo-3,4-dihydrothieno[3,4-d]pyridazine-1-carboxylate] |
| 69 | – | 81 | – | −5.3 | CCOC(=O)c1nn(-c2ccc(O)cc2)c(=O)c2c(N)scc12 [CNDR-51363, Ethyl 5-amino-3-(4-hydroxyphenyl)-4-oxo-3,4-dihydrothieno[3,4-d]pyridazine-1-carboxylate] |
| 29 | – | 41 | 2 | – | CCOC(=O)c1nn(-c2ccc(OC(F)(F)F)cc2)c(=O)c2c(N)scc12 [CNDR-51369, Ethyl 5-amino-4-oxo-3-(4-(trifluoromethoxy)phenyl)-3,4-dihydrothieno[3,4-d]pyridazine-1-carboxylate] |
| 65 | – | 88 | 6.31 | – | Nc1scc2c(C(=O)O)nn(-c3ccc(OC(F)(F)F)cc3)c(=O)c12 [CNDR-51370, 5-Amino-4-oxo-3-(4-(trifluoromethoxy)phenyl)-3,4-dihydrothieno[3,4-d]pyridazine-1-carboxylic acid] |
| 27 | – | 48 | 10 | – | CCOC(=O)c1nn(-c2ccc(C(F)(F)F)cc2)c(=O)c2c(N)scc12 [CNDR-51373, Ethyl 5-amino-4-oxo-3-(4-(trifluoromethyl)phenyl)-3,4-dihydrothieno[3,4-d]pyridazine-1-carboxylate] |
| 70 | – | 84 | – | −5.4 | Nc1scc2c(C(=O)O)nn(-c3ccc(O)cc3)c(=O)c12 [CNDR-51374, 5-Amino-3-(4-hydroxyphenyl)-4-oxo-3,4-dihydrothieno[3,4-d]pyridazine-1-carboxylic acid] |
| 42 | – | 67 | – | – | CC(C)NC(=O)c1nn(-c2ccc(OC(F)(F)F)cc2)c(=O)c2c(N)scc12 [CNDR-51375, 5-Amino-N-isopropyl-4-oxo-3-(4-(trifluoromethoxy)phenyl)-3,4-dihydrothieno[3,4-c]pyridazine-1-carboxamide] |
| 84 | – | 86 | – | −4.8 | CC(C)NC(=O)c1nn(-c2ccc(O)cc2)c(=O)c2c(N)scc12 [CNDR-51376, 5-Amino-3-(4-hydroxyphenyl)-N-isopropyl-4-oxo-3,4-dihydrothieno[3,4-d]pyridazine-1-carboxamide] |
| 77 | – | 93 | 3.16 | – | NNC(=O)c1nn(-c2ccc(Cl)cc2)c(=O)c2c(N)scc12 [CNDR-51378, 5-Amino-3-(4-chlorophenyl)-4-oxo-3,4-dihydrothieno[3,4-d]pyridazine-1-carbohydrazide] |
| 71 | 90 | – | – | −5.7 | CCOC(=O)c1nn(-c2cccc(Cl)c2)c(=O)c2c(N)scc12 [CNDR-51387] |
| 71 | – | 92 | – | −5.8 | Nc1scc2c(C(=O)O)nn(-c3cccc(Cl)c3)c(=O)c12 [CNDR-51388, 5-Amino-3-(3-chlorophenyl)-4-oxo-3,4-dihydrothieno[3,4-d]pyridazine-1-carboxylic acid] |
| 78 | – | 95 | 3.16 | – | Nc1scc2c(C(=O)O)nn(-c3ccc(Br)cc3)c(=O)c12 [CNDR-51389, 5-Amino-3-(4-bromophenyl)-4-oxo-3,4-dihydrothieno[3,4-d]pyridazine-1-carboxylic acid] |
| 62 | – | 83 | 1.26 | – | CC(C)NC(=O)c1nn(-c2cccc(Cl)c2)c(=O)c2c(N)scc12 [CNDR-51391, 5-Amino-3-(3-chlorophenyl)-N-isopropyl-4-oxo-3,4-dihydrothieno[3,4-d]pyridazine-1-carboxamide] |
| 65 | – | 88 | – | −5.7 | CCOC(=O)c1nn(-c2ccc(Cl)cc2)c(=O)c2c(N)sc(Cl)c12 [CNDR-51393, Ethyl 5-amino-7-chloro-3-(4-chlorophenyl)-4-oxo-3,4-dihydrothieno[3,4-d]pyridazine-1-carboxylate] |
| 63 | – | 77 | – | −6.0 | CCOC(=O)c1nn(-c2ccc(F)cc2)c(=O)c2c(N)scc12 [CNDR-51394, Ethyl 5-amino-3-(4-fluorophenyl)-4-oxo-3,4-dihydrothieno[3,4-d]pyridazine-1-carboxylate] |
| 83 | – | 84 | – | −5.7 | Nc1scc2c(C(=O)O)nn(-c3ccc(F)cc3)c(=O)c12 [CNDR-51395, 5-Amino-3-(4-fluorophenyl)-4-oxo-3,4-dihydrothieno[3,4-d]pyridazine-1-carboxylic acid] |
| 77 | – | 89 | – | −5.8 | CC(C)NC(=O)c1nn(-c2ccc(F)cc2)c(=O)c2c(N)scc12 [CNDR-51396, 5-Amino-3-(4-fluorophenyl)-N-isopropyl-4-oxo-3,4-dihydrothieno[3,4-d]pyridazine-1-carboxamide] |
| 90 | 87 | – | – | −5.9 | Cc1nn(-c2ccc(Cl)cc2)c(=O)c2c(N)scc12 [CNDR-51400] |
| 63 | – | 89 | 2.51 | – | CCOC(=O)c1nn(-c2ccc(I)cc2)c(=O)c2c(N)scc12 [CNDR-51404, Ethyl 5-amino-3-(4-iodophenyl)-4-oxo-3,4-dihydrothieno[3,4-d]pyridazine-1-carboxylate] |
| 44 | 85 | – | – | −6.0 | Nc1scc2c(-c3ccccc3)nn(-c3ccc(Cl)cc3)c(=O)c12 [CNDR-51405] |
| 62 | – | 92 | – | −5.4 | CCOC(=O)c1nn(-c2ccc(Cl)cc2)c(=O)c2c(N)sc(Br)c12 [CNDR-51411, Ethyl 5-amino-7-bromo-3-(4-chlorophenyl)-4-oxo-3,4-dihydrothieno[3,4-d]pyridazine-1-carboxylate] |

| Compound | Tau Cent. Assay % Soluble (K18PL tau [1]) [%] | Tau ThT Assay % Inhib. (K18PL tau [2]) [%] | inhibition at 80 µM (K18PL tau [2]) [%] | IC50 (K18PL tau [2]) [µM] | Tau ThT Assay Log IC50 (K18PL tau [2]) |
| --- | --- | --- | --- | --- | --- |
| Nc1scc2c(C(=O)NC3CC3)nn(-c3ccc(F)cc3)c(=O)c12 [CNDR-51397, 5-Amino-N-cyclopropyl-3-(4-fluorophenyl)-4-oxo-3,4-dihydrothieno[3,4-d]pyridazine-1-carboxamide] | 78 | – | 88 | – | −5.6 |
